Tests used:
Format in all cases: cell-based, human
iPSC-derived fibroblasts = test: Progerin modified-RNA overexpression in iPSC-derived fibroblasts, age-associated markers (immunocytochemistry, MitoSOX); conditions: modified-RNA 3 days; young and old donor iPSC-derived fibroblasts; vs nuclear-GFP
Method: (§1) The following is a protocol for progerin overexpression using modified-RNA in differentiating or differentiated iPSC-derived cells: • 1. Prepare progerin-modified-RNA (methods of synthesis are described in Example 9) and deliver to iPSC-derived somatic cells using Lipofectamine RNAiMAX (Life Technologies) and incubate • a. For iPSC-derived fibroblasts repeat transfection for 3 consecutive days. • i. Note: Amount/duration combination optimizes treatment for minimal toxicity and earliest significant effects. • b. For iPSC-derived dopamine neurons repeat transfection for 5 consecutive days. • i. Note: Amount/duration combination optimizes treatment for minimal toxicity and earliest significant effects. • c. For other iPSC-derived somatic cells perform pilot experiments to determine amount and duration of progerin modified-RNA. • d. Analyze maturation and/or age-associated phenotypes. • Alternatively, expression of progerin can also be achieved through the use of temperature-sensitive Sendai virus expressing progerin. Additionally, expression of progerin can be achieved by using lentivirus.
(§2) For overexpression experiments, modified-RNA was thawed on ice and adjusted to a working concentration of 100 ng/μl. Per 100,000-cell transfection, 200 ng of modified-RNA was diluted up to 10 μl in Opti-MEM medium (Life Technologies), vortexed, and incubated at room temperature for 10 minutes. In a separate tube, 0.6 μl Lipofectamine RNAiMAX® (Life Technologies) was diluted up to 10 μl in Opti-MEM and incubated for the same timeframe. The Lipofectamine mixture was then transferred to the tube containing the modified-RNA mixture, vortexed and incubated for an additional 10 minutes. The transfection mixture was added dropwise to cells that had been pre-treated with 200 ng/ml of the interferon inhibitor B18R (eBioscience, San Diego, Calif.) for at least 4 hours prior to transfection.
(§3) After 4 hours at 37° C., the entire suspension was replaced with fresh medium supplemented with B18R. Transfection of iPSC-derived fibroblasts was performed starting on day 50 of differentiation and repeated on 2 consecutive days thereafter. iPSC-derived mDA neurons were transfected starting on day 65 or day 120 of differentiation and repeated on 4 consecutive days thereafter. The additional 2 days of transfections were done in order to establish a phenotype in iPSC-derived mDA neurons. Cells were analyzed one day after the final transfection.
(§4) Cells were fixed in 4% paraformaldehyde for 15 minutes. Blocking was performed in phosphate-buffered saline supplemented with 1% BSA, and 0.3% Triton X-100 for 30 minutes to 1 hour. Cells were stained overnight at 4° C. with primary antibodies diluted in blocking buffer. Following several washes, cells were stained with appropriate Alexa Fluor-labeled secondary antibodies (Molecular Probes, Carlsbad, Calif.) at 1:500 in blocking buffer for 30 minutes to 3 hours at room temperature. Cells were counterstained with 4′,6-diamidino-2-phenylindole (DAPI; Thermo Fisher, Rockford, Ill.) to visualize nuclei. Images were acquired with an Olympus IX81 microscope using a Hamamatsu ORCA CCD camera.
Images were acquired on an Operetta (PerkinElmer, Waltham, Mass.) using a 20× objective. Image processing was performed using Harmony high content analysis software (version 3.0).
Passage-matched cells were scored from three independent experiments. […] In these cases, 50 cells per condition were assessed for each independent experiment. […]

iPSC-derived mDA neurons [1] = test: mDA neuron marker expression (NURR1, TH) as sign of acute toxicity
Method: as §4
Cells were collected with a cell lifter (Corning, Tewksbury, Mass.) in ice-cold phosphate-buffered saline without calcium or magnesium (PBS−/−). Cell pellets were rapidly frozen on ethanol and dry ice and stored at −80° C. Cell pellets were thawed on ice and resuspended in 50-200 μl RIPA lysis buffer (50 mM Tris-HCl pH 8.0, 120 mM NaCl, 6 mM EDTA, 0.5% NP-40) with 1% sodium dodecyl sulfate (SDS). Cell suspensions were vortexed at 15-minute intervals during a 45-minute incubation on ice. Lysates were isolated following a 10,000 rpm spin for 10 minutes at 4° C. 20-40 μg samples were further diluted with 4× Laemmli sample buffer, boiled for 5 minutes at 95° C., and loaded onto a NuPAGE 4-12% Bis-Tris precast gel (Life Technologies). Gel electrophoresis was performed at 100 V for 2 hours. Gels were transferred to a methanol activated PVDF membrane using the XCell II Blot Module (Life Technologies) according to the manufacturer's instructions. Blots were blocked in 3% bovine serum albumin (BSA) in Tris buffered saline plus 0.1% Tween-20 (TBS-T) for 45 minutes at room temperature. […]
Following several washes with TBS-T, blots were incubated in appropriate HRP-labeled secondary antibodies (Jackson ImmunoResearch, West Grove, Pa.) for 1 hour at room temperature. […] Densitometry quantification was performed using ImageJ on blots from three independent experiments.

iPSC-derived mDA neurons [2] = test: Neurite/dendrite quantification (TUJ1, MAP2) in iPSC-derived mDA neurons
Method: as §4
Following immunostaining with MAP2 to label dendrites, randomly chosen images of GFP+ cells were manually acquired on an Olympus IX81 microscope using a Hamamatsu ORCA CCD camera using a 40× objective. Dendrite lengths were measured using ImageJ to trace each labeled neurite extending from GFP+ nuclei. Cells with perinuclear MAP2 staining were given a zero. GFP+ nuclei without MAP2 staining as well as cells with condensed GFP+ nuclei were not scored. Fifty cells per condition were assessed for each of three independent differentiations.

iPSC-derived mDA neurons [3] = test: Progerin modified-RNA overexpression in iPSC-derived mDA neurons, age-associated markers
Method: as §1, §2, §3, §4
Passage-matched cells were scored from three independent experiments. Where necessary due to bias against progerin-positive cells, images were processed using ImageJ software (version 1.43u, NIH). In these cases, 50 cells per condition were assessed for each independent experiment. Data are presented as mean±standard error of means (SEM). […]

[4] = modified-RNA 5 days, GFP-positive mDA neurons

Substance: GFP-progerin: progerin (truncated lamin A) fused to GFP, SEQ ID No. 2, overexpressed via modified-RNA or hSyn lentivirus
- DNA damage (γH2AX) (iPSC-derived fibroblasts): formation of DNA double strand breaks
- LAP2α expression (iPSC-derived fibroblasts): loss of LAP2α expression
- heterochromatin markers (H3K9me3 and HP1γ) (iPSC-derived fibroblasts): loss of heterochromatin markers
- mitochondrial superoxide (MitoSOX) (iPSC-derived fibroblasts): increased mitochondrial dysfunction
- nuclear morphology (iPSC-derived fibroblasts): induced nuclear morphology abnormalities
- mDA neuron markers NURR1 and TH (iPSC-derived mDA neurons [1]; PD- and control-iPSC-derived mDA neurons, day 65, 5 days): unchanged
- percentages of iPSC-derived neurons expressing NURR1 and TH (iPSC-derived mDA neurons [1]; young and old donor iPSC-derived mDA neurons): remained unchanged
- established neurites (TUJ1 staining) (iPSC-derived mDA neurons [2]; 5 days of exposure, differentiated (day 65) mDA neurons): breakdown of established neurites
- average dendrite length (MAP2) (iPSC-derived mDA neurons [2]; mDA neurons from young and old donor iPSCs, 5 days): marked reduction in average dendrite length
- phenotype after acute 3-day overexpression (iPSC-derived mDA neurons [3]; modified-RNA 3 days, iPSC-derived mDA neurons): no obvious phenotype
- DNA damage (γH2AX foci) (iPSC-derived mDA neurons [3]; [4]): increased accumulation of DNA damage
- nuclear folding and blebbing (iPSC-derived mDA neurons [3]; [4]): enhanced nuclear folding and blebbing
- LAP2α, H3K9me3 and HP1γ immunocytochemistry (iPSC-derived mDA neurons [3]; modified-RNA 5 days, iPSC-mDA neurons, GFP-progerin vs nuclear-GFP): no difference
- mitochondrial superoxide (iPSC-derived mDA neurons [3]; modified-RNA 5 days, mDA neurons): signs of mitochondrial dysfunction

Reference: patent publication US9963674B2, “Age-modified cells and methods for making age-modified cells” (Memorial Sloan-Kettering Cancer Center, priority 2013, dated 2018)
